Experimental findings from patent US20250009694A1, “METHODS AND PHARMACEUTICAL COMPOSITIONS FOR REPAIRING INTESTINAL MUCOSAL” (INSTITUT NATIONAL DE LA SANTÉ ET DE LA RECHERCHE MÉDICALE, priority 2021, published 2025) are described below.

This test relates to DSS-colitis in WT mice. In words: DSS-induced acute colitis in WT C57BL/6 mice after pre-treatment. The class given is in vivo, mouse. To be noted: CEA alone, Pan alone or coadministration.

For `NCCS` [CEA, 2-aminoethanethiol], the “influence on DSS-colitis, single or combined administration” value was “poor influence”. Consider `CC(C)(CO)[C@@H](O)C(=O)NCCC(=O)O` [Pan, 3-[(2R)-(2,4-Dihydroxy-3,3-dimethylbutanoyl)amino]propanoic acid], for which the “influence on DSS-colitis, single or combined administration” value is “delayed colitis development”.
